In patent publication US4545932A, “Glucosaminyl muramyl peptide derivatives” (Dainippon Pharmaceutical Co., Ltd., priority 1982, dated 1985):

Tests used:
Format in all cases: in vivo
Pyrogenicity in rabbits = conditions: for Pyrogenicity in rabbits: injected into ear vein, three rabbits per group
Procedure: Rabbits (each group: three rabbits) were used. Test compounds dissolved in a physiological saline solution were each injected into ear vein of rabbits. The difference between maximum body temperature within three hours after the injection of test compound and the body temperature before the injection was regarded as rise in body temperature. The degree of pyrogenicity was evaluated according to the following criterion: […]

Escherichia coli P-5101 = assay: Prophylactic effect on experimental infection, Escherichia coli; conditions: Std-ddY male mice, 7 days after infection
Source text: (§1) Std-ddY male mice weighing about 23 g (each group: 8 mice) were used. Test compounds dissolved in a physiological saline solution were each intravenously administered to mice once a day 1, 2 and 3 days before the infection. Twenty-four hours after the final administration of test compounds, the mice were infected with various microorganisms suspended in saline (in case of Staphylococcus aureus and Candida albicans) or in Trypto-Soy Broth (manufactured by Eiken Chemical Co., Ltd., Japan) (in case of Pseudomonas aeruginosa and Escherichia coli) under the conditions as shown in Table 1. When the experiment was repeated twice or more, the data were pooled.
(§2) ^a Test compounds were intravenously administered once a day 1, 2 and
(§3) 3 days before infection.
(§4) ^b Figures represent (number of survivals)/(number of animals tested)
(§5) and figures in parenthesis represent percent survival.

[1] = tested on: Staphylococcus aureus No. 50774; assay: Prophylactic effect on experimental infection, Staphylococcus aureus; conditions: Std-ddY male mice, 14 days after infection
Source text: as §1, §2, §3, §4, §5

Candida albicans 3170 = assay: Prophylactic effect on experimental infection, Candida albicans; conditions: Std-ddY male mice, 7 days after infection
Source text: as §1
3170 fungal sus- infection
as §2, §3, §4, §5

Acute toxicity in mice = conditions: mortality for 14 days
Procedure: Male and female ICR mice aged about 6 weeks (each group: 8 mice) were used. The compound of Example 15 was dissolved in distilled water and administered to mice. Mortality was checked for 14 days and LD50 was calculated by probit method.

[2] = tested on: Pseudomonas aeruginosa No. 12; assay: Prophylactic effect on experimental infection, Pseudomonas aeruginosa; conditions: Std-ddY male mice, 7 days after infection
Source text: as §1, §2, §3, §4, §5

various microorganisms = assay: Antiinfectious effect in mice; conditions: summary of Table 2; mice
Source text: as §1
Besides, as to the compounds of Examples 8, 18, 36, 37 and 45 (derivatives of GMP3 -A), similar experiments were done.

[3] = Dose 0.05 mg/kg i.v. once a day 1, 2 and 3 days before infection
[4] = Dose 0.2 mg/kg i.v. once a day 1, 2 and 3 days before infection
[5] = Dose 0.8 mg/kg i.v. once a day 1, 2 and 3 days before infection
[6] = Dose 3.1 mg/kg i.v. once a day 1, 2 and 3 days before infection
[7] = Dose 12.5 mg/kg i.v. once a day 1, 2 and 3 days before infection
[8] = Dose 50 mg/kg i.v. once a day 1, 2 and 3 days before infection
[9] = Dose 0.125 mg/kg i.v. once a day 1, 2 and 3 days before infection
[10] = Dose 0.0125 mg/kg i.v. once a day 1, 2 and 3 days before infection

CCCCCCCCCCCCCCCCCC(=O)NC(CCCC(NC(=O)CCC(NC(=O)C(C)NC(=O)C(C)OC1C(NC(C)=O)C(O)OC(CO)C1OC1OC(CO)C(O)C(O)C1NC(C)=O)C(N)=O)C(=O)NC(C)C(=O)[O-])C(N)=O.[Na+] [Example 15, sodium β-N-acetylglucosaminyl(1→4)-N-acetylmuramyl-L-alanyl-D-isoglutaminyl-(L)-stearoyl-(D)-meso-2,6-diaminopimelic acid-(D)-amide(L)-D-alanate]
Pyrogenicity in rabbits (Pyrogenicity in rabbits; Dose 0.1 mg/rabbit): - (one animal showed rise in body temperature of 0.6 °C or more)
Pyrogenicity in rabbits (Pyrogenicity in rabbits; Dose 0.3 mg/rabbit): - (one animal showed rise in body temperature of 0.6 °C or more)
Pyrogenicity in rabbits (Pyrogenicity in rabbits; Dose 1 mg/rabbit): - (one animal showed rise in body temperature of 0.6 °C or more)
Pyrogenicity in rabbits (Pyrogenicity in rabbits; Dose 3 mg/rabbit): ± (one animal showed rise in body temperature of 0.6 °C or more)
Pyrogenicity in rabbits (Pyrogenicity in rabbits; Dose 10 mg/rabbit): + (two or more animals showed rise in body temperature of 0.6 °C or more)
pyrogenicity compared with GMP4 -A (Pyrogenicity in rabbits; summary of Table 3, rabbits): less pyrogenicity than GMP4 -A
(number of survivals)/(number of animals tested) (Escherichia coli P-5101; [3]): 6/16
percent survival (Escherichia coli P-5101; [3]): 37.5%
(number of survivals)/(number of animals tested) (Escherichia coli P-5101; [4]): 7/16
percent survival (Escherichia coli P-5101; [4]): 43.8%
(number of survivals)/(number of animals tested) (Escherichia coli P-5101; [5]): 10/16
percent survival (Escherichia coli P-5101; [5]): 62.5%
(number of survivals)/(number of animals tested) (Escherichia coli P-5101; [6]): 11/16
percent survival (Escherichia coli P-5101; [6]): 68.8%
(number of survivals)/(number of animals tested) (Escherichia coli P-5101; [7]): 11/16
percent survival (Escherichia coli P-5101; [7]): 68.8%
(number of survivals)/(number of animals tested) (Escherichia coli P-5101; [8]): 7/8
percent survival (Escherichia coli P-5101; [8]): 87.5%
(number of survivals)/(number of animals tested) [1, 3]: 9/16
percent survival [1, 3]: 56.3%
(number of survivals)/(number of animals tested) [1, 9]: 3/16
percent survival [1, 9]: 18.8%
(number of survivals)/(number of animals tested) [1, 4]: 13/16
percent survival [1, 4]: 81.3%
(number of survivals)/(number of animals tested) [1, 5]: 13/16
percent survival [1, 5]: 81.3%
(number of survivals)/(number of animals tested) [1, 6]: 15/16
percent survival [1, 6]: 93.8%
(number of survivals)/(number of animals tested) [1, 7]: 13/16
percent survival [1, 7]: 81.3%
(number of survivals)/(number of animals tested) (Candida albicans 3170; [5]): 3/8
percent survival (Candida albicans 3170; [5]): 37.5%
(number of survivals)/(number of animals tested) (Candida albicans 3170; [6]): 4/8
percent survival (Candida albicans 3170; [6]): 50%
(number of survivals)/(number of animals tested) (Candida albicans 3170; [7]): 4/8
percent survival (Candida albicans 3170; [7]): 50%
(number of survivals)/(number of animals tested) (Candida albicans 3170; [8]): 7/8
percent survival (Candida albicans 3170; [8]): 87.5%
LD50 (Acute toxicity in mice; i.p., female ICR mice): > 600 mg/kg
LD50 (Acute toxicity in mice; i.p., male ICR mice): > 600 mg/kg
LD50 (Acute toxicity in mice; i.v., female ICR mice, probit method, 95% confidence limits in parenthesis): 266 (237-297) mg/kg
LD50 (Acute toxicity in mice; i.v., male ICR mice, probit method, 95% confidence limits in parenthesis): 292 (261-328*) mg/kg
LD50 (Acute toxicity in mice; p.o., female ICR mice): > 3000 mg/kg
LD50 (Acute toxicity in mice; p.o., male ICR mice): > 3000 mg/kg
LD50 (Acute toxicity in mice; s.c., female ICR mice): > 600 mg/kg
LD50 (Acute toxicity in mice; s.c., male ICR mice): > 600 mg/kg
(number of survivals)/(number of animals tested) [2, 10]: 12/32
percent survival [2, 10]: 37.5%
(number of survivals)/(number of animals tested) [2, 3]: 14/32
percent survival [2, 3]: 43.8%
(number of survivals)/(number of animals tested) [2, 4]: 15/32
percent survival [2, 4]: 46.9%
(number of survivals)/(number of animals tested) [2, 5]: 14/24
percent survival [2, 5]: 58.3%
(number of survivals)/(number of animals tested) [2, 6]: 14/16
percent survival [2, 6]: 87.5%
(number of survivals)/(number of animals tested) [2, 7]: 8/8
percent survival [2, 7]: 100%
antiinfectious effect compared with GMP4 -A (various microorganisms): more potent antiinfectious effect
